Measurements published in patent US20160031909A1, “PORPHYRAZINE OPTICAL AND DUAL OPTICAL/ MR CONTRAST AND THERAPEUTIC AGENTS” (HOFFMAN/BARRETT, LLC, priority 2013, published 2016).

Assays:
[1] = HPLC analysis of urine collected from mice; assay type: in vivo, athymic nude mice
Water solubility = assay type: physicochemical
Method: The pz platform is diol pz 285, which was prepared and activated for nucleophilic substitution by arenesulfonylation to produce bis-tosylate pz 286 as previously described (13). Subsequent nucleophilic substitution of pz 286 with excess sodium azide gave diazide pz 288, which was suitable for conjugation via cycloaddition reactions with the alkyne-functionalized Gd595. (Scheme 1). The use of catalytic copper(II) sulfate in this conjugation reaction partially metallates the pz core. To address this issue, pz 288 either was metallated with ZnCl2 prior to reaction with the alkyne or a stoichiometric amount of the […] catalyst was used to ensure that the pz core was completely cuprated. Standard cycloaddition reaction conditions were subsequently used to conjugate metallated pz diazides with Gd595 to produce Zn-Pz-Gd(III) and Cu-Pz-Gd(III) conjugates, which were isolated by preparative HPLC in 52% and 57% isolated yields, respectively. Trace amounts of Zn-Pz-Gd(III) were transmetallated to Cu-Pz-Gd(III), but this small amount was removed during purification.

[2] = Relaxation time measurements (longitudinal relaxivity r1); assay type: physicochemical
Excerpt: The efficiency of a contrast agent in reducing the longitudinal relaxation time of water protons is defined in terms as relaxivity (mM^−1 s^−1) (14). It has been predicted by Solomon-Bloembergen-Morgan theory that a slow molecule tumbling of an MRI agent causes an increase in rotational correlation time, Tr, which in turn results in increase in relaxivity (14, 15). A common approach to increase relaxivity by slowing down the molecular tumbling is to attach Gd(III) complexes to a macromolecule through rigid linkages (12,16). The relaxivity of the monomeric DOTA-Gd(III) (DOTA is 1,4,7,10-tetraazacyclododecane-N,N,N″,N″-tetraacetic acid) used in the clinic is shown for comparison (17). […] Both the Zn-Pz-Gd(III) and Cu-Pz-Gd(III) had higher longitudinal relaxivity than DOTAGd(III).
Solutions of M-Pz-Gd(III) (M=Zn, Cu) conjugates were dissolved in 500 μL of filtered, deionized H20 (18.2 MΩ·cm) for T1 acquisition. Relaxation times were measured on a Bruker mq60 NMRanalyzer equipped with Minispec v2.51 Rev.00/NT software (Bruker Biospin, Billerica, Mass., USA) operating at 1.41 T (60 MHz) and 37° C. T1 relaxation times were measured using an inversion recovery pulse sequence (T1—ir_mb) using the following parameters: 4 scans per point, 10 data points for fitting, mono-exponential curve fitting, phase cycling, 10 ms first pulse separation, and a recycle delay and final pulse separation≧5 T1. The gadolinium concentrations of each solution were determined using ICP-MS. The inverse of the longitudinal relaxation time (1/ T1, s^−1) was plotted against gadolinium concentration (mM) and fitted to a straight line with an R^2>0.99. The slope of the fitted line was recorded as the relaxivity, r1.

MDA-MB-231 cells = assay: In vitro cellular uptake, Gd(III) content by ICP-MS; assay type: cell-based; details: MDA-MB-231, 24 hours, compared with equivalent DOTA-Gd(III)
Method: Breast tumor cells (MDA-MB-231) were treated with M-Pz-Gd(III) complexes at varying concentrations for 24 hours, washed, digested in acid, and Gd(III) content was measured by ICP-M S (FIG. 1). An M-Pz-Gd(III) dose of 50 μM corresponds to an overall Gd(III) dose of 100 μM because two Gd(III) ions are present per molecule. Cells also were treated with an equivalent amount of DOTA-Gd(III), an agent known not to cross cell membranes.
After cell harvesting, an aliquot of the cell suspensions was mixed with Guava ViaCount reagent and allowed to stain at room temperature for at least 5.0 minutes (no longer than 20 minutes). Stained samples were vortexed for 10 seconds and counted. Percent cell viability was determined via manual analysis using a Guava EasyCyte Mini Personal Cell Analyzer (PCA) and ViaCount software module. For each sample, 1000 events were acquired with dilution factors that were determined based upon optimum machine performance (about 25-70 cells/μL).
Quantification of Gd was accomplished using ICP-MS of acid digested samples. Solution samples were digested in ACS reagent grade nitric acid (70%, Sigma, St. Louis, Mo., USA) and incubated in a water bath at 70° C. for at least 2 hours to allow for complete sample digestion. […]

[3] = Octanol-water partition coefficients by ICP-MS; assay type: physicochemical; details: 1:1 water:1-octanol, 48 hours, Gd by ICP-MS
Method: Octanol-water partition coefficients (log P) were measured by ICP-MS to determine the hydrophilicity of the Pz-Gd(III) conjugates (4d, 18). The hydrophilicity of a molecule dictates cellular permeability where a balance in amphiphilicity is desired for ease of aqueous administration and maximum cellular uptake (19). Cu-Pz-Gd(III) is slightly more hydrophobic than Zn-Pz-Gd(III) and both conjugates are more hydrophobic than DOTA-Gd(III).
DOTA-Gd(I I I), Zn-Pz-Gd(III), and Cu-Pz-Gd(III) (0.5 mg) were dissolved in 1 mL of a 1:1 mixture of water:1-octanol, respectively. After shaking for 30 seconds, these tubes were placed on a rotator for gentle mixing to equilibrate for 48 hours. Gd(III) concentration in each layer was determined by ICP-MS. Partition coefficients were calculated from the equation log P=log(Co/Cw), where log P is the logarithm of the partition coefficient, Co is the concentration of Gd in the 1-octanol layer, and Cw is the concentration of Gd in the water layer.

Cu[Pz(C19H28N8O7Gd)2]. Pz=18,21-bis(2-(1H-1,2,3-triazole-4-yl) ethoxy)-tris-[1,4-dioxino[g,l,q](2R,3R)-2,3-dimethoxy-2,3-dimethyll 25H,27H-benzo[b]porphyrazine; C19H28N8O7Gd=N-methyl-2-aminoacetamide-4,7,10-tris(carboxymethyl)-1,4,7,10-tetraazacyclododecylgadolinium(III)) [Cu-Pz-Gd(III)]
form cleared in urine [1]: cleared intact | water solubility (Water solubility): freely water soluble | solution-phase ionic relaxivity relative to DOTA-Gd(III) ([2]; compared with clinically-used monomeric DOTA-Gd(III)): about four times greater | Ionic r1 ([2]; per Gd(III), water, 1.41 T (60 MHz), 37° C.): 11.5 mM^−1 S^−1 | Molecular r1 ([2]; per molecule (2 Gd(III)), water, 1.41 T (60 MHz), 37° C.): 23.0 mM^−1 S^−1 | solution phase molecular relaxivity (r1) ([2]; text of b56, unit inferred): 23 mM⁻¹ s⁻¹ | Cellular uptake, Gd(III) content per cell (MDA-MB-231 cells): two-fold increase | log P [3]: −2.41
